Laboratory results: patent US20120129811A1, “TRICYCLIC INHIBITORS OF PRO-MATRIX METALLOPROTEINASE ACTIVATION” (priority 2010, published 2012)
Counter-ions that a name gives are not always drawn. Values belong to the molecule of their own block, whether it stands above or below them.

What was measured:
[1] = target: T1, proMMP9(20-445;ΔFnII) (SEQ ID NO:6) (Homo sapiens, UniProt P14780, DEL216-390); assay: ThermoFluor binding assay with proMMP9(20-445;ΔFnII)
T1 construct: start methionine (N); made in house; host or cells: E. coli BL21(DE3) RIL
T1 sequence (P14780 with tags, fused parts or gaps DEL216-390): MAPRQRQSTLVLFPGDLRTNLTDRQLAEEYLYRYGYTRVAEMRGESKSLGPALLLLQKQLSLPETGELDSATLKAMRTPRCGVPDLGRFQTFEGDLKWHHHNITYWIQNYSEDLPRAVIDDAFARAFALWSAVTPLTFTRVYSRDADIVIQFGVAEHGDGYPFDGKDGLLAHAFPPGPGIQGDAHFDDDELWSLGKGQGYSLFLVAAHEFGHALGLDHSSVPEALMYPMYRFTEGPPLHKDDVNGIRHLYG
Outline: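 Protein thermal stability was measured with 2.8 μM proMMP9(20-445;ΔFnII) and 50 μM 1,8-ANS in 50 mM HEPES pH 7.0, 100 mM NaCl, 0.001% Tween-20, 2.5 mM MgCl2, 300 μM CaCl2, across serial compound dilutions. Samples were heated 40–90° C at 1° C/min with fluorescence read at 500 nm. Tm was fitted, and binding was derived from thermodynamic parameters obtained by DSC and ThermoFluor.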

[2] = target: T2, full-length proMMP9(1-707) activation by catalytic MMP3 (Homo sapiens, UniProt P14780, R574P); assay: proMMP9/MMP3 P126 Activation Assay; type: biochemical
T2 construct: made in house; host or cells: proMMP9: HEK293 (secreted); MMP3: E. coli
Procedure: proMMP9/MMP3 P126 Activation Assay
The reaction volume was 50 μL. […] Reactivity of residual MMP3 towards P-126 substrate was minimal under these conditions.

[3] = target: T3, proMMP13(1-268) activation by plasmin (Homo sapiens, UniProt P45452); assay: ProMMP13/Plasmin P126 Activation Assay; type: biochemical
T3 construct: 6xHis (C); made in house; host or cells: HEK293 (proMMP13)
Procedure: ProMMP13/Plasmin P126 Activation Assay
On the day of assay, proMMP13(1-268) (SEQ ID NO:7) purified from HEK293 cells and plasmin were diluted to 160 nM and 320 nM, respectively, in assay buffer. The reaction volume was 50 μL. […] The plate was sealed and incubated for 40 min at 37° C. […] Plasmin was not reactive towards P-126 substrate under these conditions.

[4] = target: T4, proMMP13(1-268) (SEQ ID NO:7) (Homo sapiens, UniProt P45452); assay: ThermoFluor binding assay with proMMP13(1-268)
T4 construct: 6xHis (C); made in house; host or cells: HEK293 (transient, secreted)
Procedure: The ThermoFluor® (TF) assay is a 384-well plate-based binding assay that measures thermal stability of proteins (Biomol Screen 2001, 6, 429-40; Biochemistry 2005, 44, 5258-66). The experiments were carried out using instruments available from Johnson & Johnson Pharmaceutical Research & Development, LLC. TF dye used in all experiments was […] (1,8-ANS) (Invitrogen: A-47).
Compounds were arranged in a pre-dispensed plate (Greiner Bio-one: 781280), wherein compounds were serially diluted in 100% DMSO across 11 columns within a series. Columns 12 and 24 were used as DMSO reference and contained no compound. For multiple compound concentration-response experiments, the compound aliquots (50 nL) were robotically predispensed directly into black 384-well polypropylene PCR microplates (Abgene: TF-0384/k) using a Cartesian Hummingbird liquid handler (DigiLab, Holliston, Mass.). Following compound dispense, protein and dye solutions were added to achieve the final assay volume of 3 μL. The assay solutions were overlayed with 1 μL of silicone oil (Fluka, type DC 200: 85411) to prevent evaporation.
Assay plates were robotically loaded onto a thermostatically controlled PCR-type thermal block and then heated from 40 to 90° C. at a ramp-rate of 1° C./min for all experiments. Fluorescence was measured by continuous illumination with UV light (Hamamatsu LC6) supplied via fiber optics and filtered through a band-pass filter (380-400 nm; >60D cutoff). Fluorescence emission of the entire 384-well plate was detected by measuring light intensity using a CCD camera (Sensys, Roper Scientific) filtered to detect 500±25 nm, resulting in simultaneous and independent readings of all 384 wells. A single image with 20-sec exposure time was collected at each temperature, and the sum of the pixel intensity in a given area of the assay plate was recorded vs temperature and fit to standard equations to yield the Tm (J Biomol Screen 2001, 6, 429-40).
Thermodynamic parameters necessary for fitting compound binding for each proMMP were estimated by differential scanning calorimetry (DSC) and from ThermoFluor® data. The heat capacity of unfolding for each protein was estimated from the molecular weight and from ThermoFluor® dosing data.
ThermoFluor® with proMMP13(1-268) (SEQ ID NO: 7)
The proMMP13(1-268) (SEQ ID NO:7) protein sample preparations included a desalting buffer exchange step via a PD-10 gravity column (GE Healthcare). The desalting buffer exchange was performed prior to diluting the protein to the final assay concentration of 3.5 μM. The concentration of proMMP13(1-268) (SEQ ID NO:7) was estimated spectrophotometrically based on a calculated extinction coefficient of ε280=37000 M^−1 cm^−1, a calculated molecular weight of 30.8 kDa, and calculated pI of 5.33. ThermoFluor® reference conditions were defined as follows: 100 μg/mL proMMP13(1-268) (SEQ ID NO:7), 25 μM 1,8-ANS, pH 7.0 Buffer (50 mM HEPES pH 7.0, 100 mM NaCl, 0.001% Tween-20, 2.5 mM MgCl2, 300 μM CaCl2). The thermodynamic parameters for proMMP13(1-268) (SEQ ID NO:7) are as follows: Tm (° C.)=67 (+/−0.1), ΔUH(Tm)) (cal mol^−1)=107000(+/−5000), ΔUSTm (cal mol^−1 K^−1)=318, ΔUCp (cal mol^−1 K^−1)=2600.

[5] = target: T5, proMMP9(67-444;ΔFnII) (SEQ ID NO:5) (Homo sapiens, UniProt P14780, DEL216-390); assay: ThermoFluor binding assay with proMMP9(67-444;ΔFnII)
T5 construct: start methionine (N); made in house; host or cells: E. coli BL21(DE3) RIL
T5 sequence (P14780 with tags, fused parts or gaps DEL216-390): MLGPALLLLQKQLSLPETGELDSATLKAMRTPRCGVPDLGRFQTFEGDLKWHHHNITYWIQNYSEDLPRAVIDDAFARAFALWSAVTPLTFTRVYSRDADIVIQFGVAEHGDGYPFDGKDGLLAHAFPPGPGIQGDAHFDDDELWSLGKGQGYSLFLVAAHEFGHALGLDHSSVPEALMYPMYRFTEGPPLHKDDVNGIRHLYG
Outline: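 Thermal shift of 3.5 μM proMMP9(67-444;ΔFnII), desalted beforehand, with 50 μM 1,8-ANS in 50 mM HEPES pH 7.0, 100 mM NaCl, 2.5 mM MgCl2, 300 μM CaCl2, 0.001% Tween-20. Heated 40–90 °C at 1 °C/min, fluorescence read at 500 nm; binding fitted from Tm shifts using DSC- and ThermoFluor-derived unfolding parameters.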

T2 sequence (P14780 20-707 R574P): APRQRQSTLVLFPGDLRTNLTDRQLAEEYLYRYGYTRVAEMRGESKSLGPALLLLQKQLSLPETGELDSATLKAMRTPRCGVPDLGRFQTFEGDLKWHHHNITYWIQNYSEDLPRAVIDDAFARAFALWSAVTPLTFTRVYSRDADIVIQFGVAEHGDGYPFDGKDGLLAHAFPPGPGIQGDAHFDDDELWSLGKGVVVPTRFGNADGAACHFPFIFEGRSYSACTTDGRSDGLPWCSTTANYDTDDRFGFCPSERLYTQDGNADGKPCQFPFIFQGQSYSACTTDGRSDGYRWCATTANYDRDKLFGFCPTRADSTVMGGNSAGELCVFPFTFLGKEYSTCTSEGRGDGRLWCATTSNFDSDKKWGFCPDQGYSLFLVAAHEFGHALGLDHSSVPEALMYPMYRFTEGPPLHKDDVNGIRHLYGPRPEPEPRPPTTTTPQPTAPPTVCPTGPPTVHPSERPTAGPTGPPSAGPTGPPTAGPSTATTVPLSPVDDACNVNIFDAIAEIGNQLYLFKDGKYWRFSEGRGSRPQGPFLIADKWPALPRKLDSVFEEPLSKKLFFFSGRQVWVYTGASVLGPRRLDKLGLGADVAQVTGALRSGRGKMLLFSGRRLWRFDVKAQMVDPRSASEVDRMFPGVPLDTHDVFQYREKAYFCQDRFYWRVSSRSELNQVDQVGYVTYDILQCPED

SMILES: CC(C)Oc1ccc(C(N)=O)cc1Nc1nc2c(ccc3c2ncn3C)s1 [Example 22, 4-Isopropoxy-3-(6-methyl-6H-imidazo[4′,5′:3,4]benzo[2,1-d]thiazol-2-ylamino)-benzamide.HCl]
Kd [1]: 170 nM | IC50 [2]: 92 nM | IC50 [3]: 1900 nM | Kd [4]: 0.81 µM | Kd [5]: 100 nM

SMILES: COc1ccc(S(C)(=O)=O)cc1Nc1nc2c(ccc3c2ncn3C)s1 [Example 52, (5-Methanesulfonyl-2-methoxy-phenyl)-(6-methyl-6H-imidazo[4′,5′:3,4]benzo[2,1-d]thiazol-2-yl)-amine.HCl]
Kd [1]: 1400 nM | IC50 [2]: 160 nM | Kd [4]: 2.2 µM | Kd [5]: 600 nM

SMILES: COc1ccc(S(N)(=O)=O)cc1Nc1nc2c(ccc3c2ncn3C)s1 [Example 54, 4-Methoxy-3-(6-methyl-6H-imidazo[4′,5′:3,4]benzo[2,1-d]thiazol-2-ylamino)-benzenesulfonamide.HCl]
Kd [1]: 1600 nM | IC50 [2]: 240 nM | Kd [4]: 11 µM | Kd [5]: 1100 nM

SMILES: COc1ccc(S(=O)(=O)N(C)C)cc1Nc1nc2c(ccc3c2ncn3C)s1 [Example 55, 4-Methoxy-N,N-dimethyl-3-(6-methyl-6H-imidazo[4′,5′:3,4]benzo[2,1-d]thiazol-2-ylamino)-benzenesulfonamide.HCl]
Kd [1]: 6700 nM | IC50 [2]: 530 nM | Kd [4]: 2.1 µM | Kd [5]: 2200 nM

SMILES: COc1cc(C)c(C(N)=O)cc1Nc1nc2c(ccc3c2ncn3C)s1 [Example 56, 4-Methoxy-2-methyl-5-(6-methyl-6H-imidazo[4′,5′:3,4]benzo[2,1-d]thiazol-2-ylamino)-benzamide.HCl]
Kd [1]: 1000 nM | IC50 [2]: 1100 nM | Kd [4]: 9.8 µM | Kd [5]: 3300 nM

SMILES: Cn1cnc2c3nc(Nc4ccccc4OC(F)(F)F)sc3ccc21 [Example 58, (6-Methyl-6H-imidazo[4′,5′:3,4]-benzo[2,1-d]thiazol-2-yl)-(2-trifluoromethoxy-phenyl)-amine.HCl]
Kd [1]: 2600 nM | IC50 [2]: 380 nM | Kd [4]: 21 µM | Kd [5]: 930 nM

SMILES: CC(C)Oc1ccc(F)cc1Nc1nc2c(ccc3c2ncn3C)s1 [Example 59, (5-Fluoro-2-isopropoxy-phenyl)-(6-methyl-6H-imidazo[4′,5′:3,4]-benzo[2,1-d]thiazol-2-yl)-amine.HCl]
Kd [1]: 2000 nM | IC50 [2]: 450 nM | Kd [4]: 3.2 µM | Kd [5]: 680 nM

SMILES: CCS(=O)(=O)c1ccc(OC)c(Nc2nc3c(ccc4c3ncn4C)s2)c1 [Example 60, (5-Ethanesulfonyl-2-methoxy-phenyl)-(6-methyl-6H-imidazo[4′,5′:3,4]-benzo[2,1-d]thiazol-2-yl)-amine.HCl]
Kd [1]: 2800 nM | IC50 [2]: 340 nM | Kd [4]: 1.5 µM | Kd [5]: 970 nM

SMILES: COC(=O)c1ccc(OC)c(Nc2nc3c(ccc4c3ncn4C)s2)c1 [Example 61, 4-Methoxy-3-(6-methyl-6H-imidazo[4′,5′:3,4]benzo[2,1-d]thiazol-2-ylamino)-benzoic acid methyl ester.HCl]
Kd [1]: 3200 nM | IC50 [2]: 650 nM | Kd [4]: 2.1 µM | Kd [5]: 860 nM

SMILES: CCc1ccccc1Nc1nc2c(ccc3c2ncn3C)s1 [Example 62, (2-Ethyl-phenyl)-(6-methyl-6H-imidazo[4′,5′:3,4]benzo[2,1-d]thiazol-2-yl)-amine.HCl]
Kd [1]: 3900 nM | IC50 [2]: 1100 nM | Kd [4]: 51 µM | Kd [5]: 1600 nM

SMILES: COc1c(F)cc(F)cc1Nc1nc2c(ccc3c2ncn3C)s1 [Example 63, (3,5-Difluoro-2-methoxy-phenyl)-(6-methyl-6H-imidazo[4′,5′:3,4]benzo[2,1-d]thiazol-2-yl)-amine.HCl]
Kd [1]: 1200 nM | IC50 [2]: 690 nM | Kd [4]: 2.3 µM | Kd [5]: 450 nM

Results, then the molecule that gave them:

Kd [1]: 950 nM | IC50 [2]: 1300 nM | Kd [4]: 9 µM | Kd [5]: 2900 nM
SMILES: CC(C)Oc1ccc(C(N)=O)cc1Nc1nc2c(ccc3ncccc32)s1 [Example 91, 4-Isopropoxy-3-(thiazolo[4,5-f]quinolin-2-ylamino)-benzamide.TFA]

Kd [1]: 1100 nM | IC50 [2]: 130 nM | IC50 [3]: ~6000 nM | Kd [5]: 410 nM
SMILES: COc1ccc(S(C)(=O)=O)cc1Nc1nc2c(ccc3c2cnn3C)s1 [Example 92, (5-Methanesulfonyl-2-methoxy-phenyl)-(6-methyl-6H-3-thia-1,6,7-triaza-as-indacen-2-yl)-amine.HCl]

Kd [1]: 190 nM | IC50 [2]: 170 nM | IC50 [3]: 1800 nM | Kd [5]: 360 nM
SMILES: COc1ccc(C(N)=O)cc1Nc1nc2c(ccc3c2cnn3C)s1 [Example 95, 4-Methoxy-3-(6-methyl-6H-3-thia-1,6,7-triaza-as-indacen-2-ylamino)-benzamide.HCl]

Kd [1]: 3000 nM | IC50 [2]: 1600 nM | Kd [4]: 14 µM | Kd [5]: 25000 nM
SMILES: CC(C)Oc1ccc(C(N)=O)cc1Nc1nc2c(s1)CCc1cnccc1-2 [Example 115, 3-(4,5-Dihydro-thiazolo[4,5-f]isoquinolin-2-ylamino)-4-isopropoxy-benzamide.TFA]

Kd [1]: 1800 nM | IC50 [2]: 980 nM | Kd [4]: 8.7 µM | Kd [5]: 7300 nM
SMILES: CC(C)Oc1ccc(C(N)=O)cc1Nc1nc2c(s1)CCc1ccncc1-2 [Example 116, 3-(4,5-Dihydro-thiazolo[5,4-h]isoquinolin-2-ylamino)-4-isopropoxy-benzamide.TFA]

Kd [1]: 8800 nM | IC50 [2]: 6000 nM | Kd [4]: 32 µM | Kd [5]: 3500 nM
SMILES: COc1ccc(C(N)=O)cc1Nc1nc2c(s1)CCc1ncccc1-2 [Example 117, 3-(4,5-Dihydro-thiazolo[4,5-f]quinolin-2-ylamino)-4-methoxy-benzamide]
